Marks after values point to notes of the source that are not given here.
Assays:
HIV-1 (IIIB) = assay type: cell-based; conditions: strain IIIB (HIV-1), MT-4 cells
Description: The human immunodeficiency virus strains used were HIV-1 (IIIB)^1 and HIV-2 (ROD)^2. Anti-retroviral activity and cytotoxicity measurements were carried out in parallel. […] After the MT-4 cells were allowed to proliferate for 5 days, the number of viable cells was quantified by a tetrazolium-based calorimetric 3-(4,5-dimethylthiazol-2-yl)-2,5-diphenyltetrazolium bromide (MTT) procedure in 96-well microtrays.^3
In all of these assays, viral input (viral multiplicity of infection, MOI) was 0.01, or 100 times the 50% cell culture infective dose (CCID50). […] Average EC50 and CC50 values for several separate experiments are presented as defined above. […] SI is the antiviral selectivity index CC50/EC50.

[1] = test system: human papillomavirus type 6b VLPs; assay: Inhibition of uptake of HPV virus-like particles into A431 cells (flow cytometry); assay type: cell-based
Description: The compound was evaluated for its ability to inhibit the binding and uptake of human papillomavirus virus-like particles to a human epithelial cell line.
The compound was tested at a range of six dilutions as inhibitor of binding and of uptake of Papillomavirus fluorochrome-tagged Virus-Like-Particles (VLPs) of human papillomavirus type 6b. […] Assay of binding and uptake was determined using flow cytometry and inhibition of binding was reported as a percentage with respect to the binding observed in the absence of inhibitor. The tests were performed in two independent assays
Cells. The human epidermoid carcinoma cell line A431 was purchased from the American Type Culture Collection at passage 30 (CRL-1555, Batch F-13530) and maintained in DMEM in 10% FCS.
Human papillomavirus type 6b VLPs were grown and purified according to standard operating procedures. Particles were labelled with a fluorochrome.
The compound was re-dissolved in sterile water to the concentrations of 5 mM and used fresh for the first assay before being frozen at −20° C. It was then thawed for the second assay.
A T75 flask of A431 cells was washed with 10 ml of PBS/EDTA (0.05%) for 5 minutes at 37° C. before being treated with 2 ml trypsin for a further 5 minutes at 37° C. […]
Results were analysed using WinLisT. […]

C. trachomatis = C. trachomatis genital tract infection in mice; assay type: in vivo, mouse; conditions: 15 μL of 100 mg/mL, −20 sec
Source text: Lower genital tract infection is defined by isolation of the organism by culture from vaginal swab samples collected on days 3 or 6 post challenge. For upper genital tract infection the definition is isolation of the organism by culture from the upper genital tract tissue harvested on day 10 post challenge. Phosphate buffer PBS treated mice were used as controls.

Q: What does the source list for “BHAlyslys2lys4lys8lys16[NH—CO—CH2)O-3,6-Naphthyl-(SO3Na)2]32 [SPL-7013]”?
A: EC90 (HIV-1 (IIIB)): 0.954 µg/mL; EC50 (HIV-1 (IIIB); 5 days): 0.45 µg/mL; Uptake of VLPs at maximal inhibition (% of VLPs alone) ([1]; 1 μM, HPV 6b VLPs): 26%; Uptake inhibition (in words) ([1]; at 1 μM and 10 nM): shown uptake inhibition; Animals Protected Against Infection, Lower Tract (%) (C. trachomatis; Group 1, mouse): (50%)^a; Animals Protected Against Infection, Lower Tract (number) (C. trachomatis; Group 1, mouse): 8; Animals Protected Against Infection, Upper Tract (%) (C. trachomatis; Group 1, mouse): (50%); Animals Protected Against Infection, Upper Tract (number) (C. trachomatis; Group 1, mouse): 8; Animals Protected Against Infection, Lower Tract (%) (C. trachomatis; Group 2, mouse): (38%); Animals Protected Against Infection, Lower Tract (number) (C. trachomatis; Group 2, mouse): 6; Animals Protected Against Infection, Upper Tract (%) (C. trachomatis; Group 2, mouse): (50%)^a; Animals Protected Against Infection, Upper Tract (number) (C. trachomatis; Group 2, mouse): 8
